From PubChem BioAssay (NCI)
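Dose response: 5 concentrations. Exposure: 48 h. Format: 96-well plates. Endpoint: linear interpolation; highest concentration if not reached. GI50: concentration for 50% inhibition of growth. Definition used: TGI = concentration required for complete inhibition of growth.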

Tests used:
Experiment in all cases: DTP human tumour cell line panel, 48 h
RPMI-8226 leukemia = system: RPMI-8226 leukemia
DU-145 prostate = system: DU-145 prostate
SF-539 CNS = system: SF-539 CNS
PC-3 prostate = system: PC-3 prostate
SW-620 colon = system: SW-620 colon
EKVX NSCLC = system: EKVX NSCLC
MDA-MB-435 = system: MDA-MB-435
TK-10 renal = system: TK-10 renal
SF-268 CNS = system: SF-268 CNS
A498 renal = system: A498 renal
OVCAR-8 ovarian = system: OVCAR-8 ovarian
SNB-75 CNS = system: SNB-75 CNS
SK-MEL-2 melanoma = system: SK-MEL-2 melanoma
NCI/ADR-RES ovarian = system: NCI/ADR-RES ovarian
T-47D breast = system: T-47D breast
NCI-H522 lung = system: NCI-H522 lung
NCI-H226 lung = system: NCI-H226 lung
HL-60(TB) leukemia = system: HL-60(TB) leukemia

Structure (SMILES) | TGI (RPMI-8226 leukemia) | TGI (DU-145 prostate) | TGI (SF-539 CNS) | TGI (PC-3 prostate) | TGI (SW-620 colon) | TGI (EKVX NSCLC) | TGI (MDA-MB-435) | TGI (TK-10 renal) | TGI (SF-268 CNS) | TGI (A498 renal) | TGI (OVCAR-8 ovarian) | TGI (SNB-75 CNS) | TGI (SK-MEL-2 melanoma) | TGI (NCI/ADR-RES ovarian) | TGI (T-47D breast) | TGI (NCI-H522 lung) | TGI (NCI-H226 lung) | TGI (HL-60(TB) leukemia) | GI50 (DU-145 prostate) | GI50 (SF-539 CNS)
CN(C)C(=S)N/N=C\C(=N/NC(=S)N(C)C)c1ccccc1 | > 100 µM | > 22.7 µM | > 100 µM | > 100 µM | > 100 µM | > 100 µM | > 100 µM | > 100 µM | > 72.3 µM | 49.1 µM | > 100 µM | > 53.7 µM | > 100 µM | > 25.1 µM | 4.77 µM | 9.86 µM | > 30.6 µM | – | – | –
OCCOCCN1CCN(c2nc(N3CCCC3)c3nc(Cl)c(NCc4ccccc4)nc3n2)CC1 | 27.9 µM | 25.3 µM | 88.3 µM | 27.1 µM | 44.6 µM | 27.1 µM | 26 µM | 25 µM | 31.9 µM | – | 32.2 µM | 36.5 µM | 32 µM | 31.1 µM | 30.6 µM | 31.5 µM | 40.7 µM | 29 µM | – | –
O=C(O)Cn1nnc2c(=O)[nH][nH]c(=O)c21 | > 100 µM | > 100 µM | – | – | – | > 100 µM | > 100 µM | > 100 µM | – | – | > 100 µM | – | > 100 µM | > 100 µM | – | – | – | > 100 µM | – | –
CC1CC(=O)N2CCCNC2=C1C#N (stereo not drawn) | > 100 µM | > 100 µM | > 100 µM | > 100 µM | > 100 µM | > 100 µM | > 100 µM | > 100 µM | > 100 µM | – | > 100 µM | > 100 µM | > 100 µM | > 100 µM | > 100 µM | > 100 µM | > 100 µM | – | – | –
NC(=O)Cc1ncn(-c2ccccc2)n1 | > 100 µM | > 100 µM | > 100 µM | – | > 100 µM | > 100 µM | > 100 µM | > 100 µM | > 100 µM | > 100 µM | > 100 µM | > 100 µM | > 100 µM | > 100 µM | > 100 µM | > 100 µM | > 100 µM | > 100 µM | – | –
O/N=C(\C=N\O)c1ccc2c(c1)Sc1ccccc1O2 | 38.9 µM | > 100 µM | 82.4 µM | 66.1 µM | 78.7 µM | 48.9 µM | 33.9 µM | 84.1 µM | 38.4 µM | 41.6 µM | 74.8 µM | 50.3 µM | – | – | 74.7 µM | 8.17 µM | 69.6 µM | 59.8 µM | – | –
COc1c(C(=O)/C(=N/Nc2ccccc2)C(C)=O)c(O)c(OC)c2occc12 | > 100 µM | > 100 µM | > 100 µM | > 100 µM | > 100 µM | > 100 µM | > 100 µM | > 100 µM | > 100 µM | – | > 100 µM | 81.8 µM | > 100 µM | > 100 µM | > 100 µM | > 100 µM | > 100 µM | > 100 µM | – | –
O=c1c2c(sc3ccccc13)NCN(CCc1ccccc1)C2 | 43 µM | > 100 µM | > 100 µM | > 100 µM | > 100 µM | > 100 µM | > 100 µM | – | – | > 100 µM | > 100 µM | 78.2 µM | 75.4 µM | 99 µM | – | > 100 µM | > 100 µM | > 100 µM | – | –
Nc1ccn([C@H]2CO[C@@H](CO)O2)c(=O)n1 | > 100 µM | > 22.6 µM | 68.4 µM | > 100 µM | > 100 µM | > 100 µM | > 100 µM | > 100 µM | > 100 µM | – | > 100 µM | > 100 µM | > 100 µM | > 100 µM | > 100 µM | > 100 µM | > 100 µM | > 67.2 µM | – | –
CC1=Nc2nc3ccccc3n2C(C)(C)C1 | > 100 µM | – | > 100 µM | > 100 µM | > 100 µM | > 100 µM | > 100 µM | > 100 µM | > 100 µM | > 100 µM | > 100 µM | > 100 µM | > 100 µM | > 100 µM | > 100 µM | > 100 µM | > 100 µM | – | – | –
COC(=O)C1=C(C(=O)OC)SC(=C2c3ccsc3-c3sccc32)S1 | > 100 µM | > 100 µM | > 100 µM | > 100 µM | > 100 µM | > 100 µM | > 100 µM | 57.8 µM | 57.3 µM | 71.4 µM | > 100 µM | 35.6 µM | – | > 100 µM | – | – | > 100 µM | 58.7 µM | – | –
Cc1cc(=O)oc2c(CNC(C)C(=O)O)c(O)ccc12 (stereo not drawn) | > 100 µM | > 100 µM | > 100 µM | > 100 µM | > 100 µM | > 100 µM | > 100 µM | > 100 µM | > 100 µM | – | > 100 µM | > 100 µM | > 100 µM | > 100 µM | > 100 µM | > 100 µM | > 100 µM | > 100 µM | – | –
CCCCCCNC(=O)c1cc(C#Cc2cc(OC)ccc2OC)ccc1OC | > 100 µM | > 100 µM | > 100 µM | > 100 µM | > 100 µM | > 100 µM | 13.4 µM | > 100 µM | > 100 µM | > 100 µM | > 100 µM | – | > 100 µM | > 100 µM | 11 µM | > 100 µM | – | – | > 100 µM | > 100 µM
OC(c1ccsc1)c1cc2ccccc2s1 (stereo not drawn) | > 10 µM | > 10 µM | > 10 µM | > 10 µM | > 10 µM | > 10 µM | > 10 µM | > 10 µM | > 10 µM | – | > 10 µM | > 10 µM | > 10 µM | > 10 µM | > 10 µM | > 10 µM | > 10 µM | > 10 µM | – | –
